Experiments:
Schistosoma mansoni [1] = test: Antischistosomal activity against Schistosoma mansoni LE assessed as worm mortality at 20 uM incubated for 72 hrs by microscopic method relative to control; type: functional
Schistosoma mansoni [2] = test: Antischistosomal activity against Schistosoma mansoni infected in NMRI mouse assessed as worm burden reduction at 200 mg/kg, po administered as single dose measured after 16 to 18 days; type: functional, organism-based; set-up: scale not given: the % may be the effect or the level left; conditions: time 16-18 day
Schistosoma mansoni [3] = test: Schistosomicidal-activity against Schistosoma mansoni Puerto-Rican schistosomula incubated for 7 days by trypan blue dye-exclusion test; type: functional, organism-based; conditions: 168 h
Schistosoma mansoni [4] = test: Antischistosomal activity against Schistosoma mansoni Puerto-Rican infected in BALB/c mouse assessed as worm burden reduction at 300 mg/kg, po BID administered for 2 consecutive days by light microscopic method relative to control; type: functional; set-up: scale not given: the % may be the effect or the level left
Schistosoma mansoni [5] = test: microbe, parasite or virus in culture; conditions: 72 h
Description: Antischistosomal activity against Schistosoma mansoni incubated for 72 hrs by inverted microscopic method

Schistosoma haematobium = test: Antischistosomal activity against Schistosoma haematobium at 10 uM measured after 72 hrs relative to control; type: functional
Schistosoma mansoni [6] = test: Antischistosomal activity against Schistosoma mansoni Liberian NTS at 10 uM measured after 24 hrs relative to control; type: functional
Schistosoma mansoni [7] = test: microbe, parasite or virus in culture; conditions: Liberian, 72 h
Description: Antischistosomal activity against Schistosoma mansoni Liberian NTS incubated for 72 hrs by microscopic method

Schistosoma mansoni [8] = test: Antischistosomal activity against adult Schistosoma mansoni Liberian at 10 uM measured after 24 hrs relative to control; type: functional
Schistosoma mansoni [9] = test: Antischistosomal activity against adult Schistosoma mansoni Liberian at 10 uM measured after 48 hrs relative to control; type: functional
Schistosoma mansoni [10] = test: Antischistosomal activity against Schistosoma mansoni infected in mouse assessed as worm burden reduction at 200 mg/kg, po administered as single dose and measured after 17 to 21 days relative to control; type: functional; set-up: scale not given: the % may be the effect or the level left; conditions: time 17-21 day
Histone deacetylase 8 [11] = molecular target: T1, Histone deacetylase 8 (Schistosoma mansoni, UniProt A5H660); test: Inhibition of Schistosoma mansoni HDAC8 expressed in Escherichia coli using Fluor de Lys as substrate incubated for 90 mins by fluorescence method
T1 sequence (A5H660 whole entry): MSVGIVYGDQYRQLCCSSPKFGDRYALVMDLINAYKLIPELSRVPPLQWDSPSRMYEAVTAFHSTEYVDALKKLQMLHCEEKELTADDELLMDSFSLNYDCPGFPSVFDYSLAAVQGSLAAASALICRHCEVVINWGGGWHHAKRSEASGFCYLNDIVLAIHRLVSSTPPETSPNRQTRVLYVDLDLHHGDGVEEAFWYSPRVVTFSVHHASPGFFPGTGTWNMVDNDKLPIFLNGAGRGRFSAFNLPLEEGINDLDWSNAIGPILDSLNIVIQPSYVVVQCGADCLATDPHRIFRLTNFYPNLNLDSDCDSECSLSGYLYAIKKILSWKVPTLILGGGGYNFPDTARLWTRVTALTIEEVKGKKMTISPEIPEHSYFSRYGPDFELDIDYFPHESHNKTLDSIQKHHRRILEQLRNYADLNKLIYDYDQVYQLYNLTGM

Histone deacetylase 8 [12] = molecular target: T2, Histone deacetylase 8 (Homo sapiens, UniProt Q9BY41); test: Inhibition of human HDAC8 using Fluor de Lys as substrate incubated for 90 mins by fluorescence method
T2 sequence (Q9BY41 whole entry): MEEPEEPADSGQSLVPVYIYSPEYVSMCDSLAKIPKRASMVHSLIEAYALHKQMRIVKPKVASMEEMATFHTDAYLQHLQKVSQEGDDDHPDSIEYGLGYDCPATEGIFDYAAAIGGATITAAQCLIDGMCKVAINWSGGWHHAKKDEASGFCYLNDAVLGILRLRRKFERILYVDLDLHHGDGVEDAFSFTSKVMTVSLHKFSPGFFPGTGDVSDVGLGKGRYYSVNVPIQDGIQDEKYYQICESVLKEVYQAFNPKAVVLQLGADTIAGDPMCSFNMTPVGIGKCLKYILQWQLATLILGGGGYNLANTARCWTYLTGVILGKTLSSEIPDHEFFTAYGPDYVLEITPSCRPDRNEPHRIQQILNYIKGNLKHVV

Schistosoma mansoni [13] = test: Schistosomicidal-activity against Schistosoma mansoni schistosomula at 20 uM incubated for 48 hrs by Alamar Blue assay relative to control; type: functional
[14] = molecular target: T3, Protein deacetylase HDAC6 (Homo sapiens, UniProt Q9UBN7); test: Inhibition of human HDAC6 using ZMAL(Cbz-(Ac)Lys-AMC as substrate preincubated for 90 mins followed by trypsin addition and measured after 20 mins by fluorimetric method
T3 sequence (Q9UBN7 whole entry): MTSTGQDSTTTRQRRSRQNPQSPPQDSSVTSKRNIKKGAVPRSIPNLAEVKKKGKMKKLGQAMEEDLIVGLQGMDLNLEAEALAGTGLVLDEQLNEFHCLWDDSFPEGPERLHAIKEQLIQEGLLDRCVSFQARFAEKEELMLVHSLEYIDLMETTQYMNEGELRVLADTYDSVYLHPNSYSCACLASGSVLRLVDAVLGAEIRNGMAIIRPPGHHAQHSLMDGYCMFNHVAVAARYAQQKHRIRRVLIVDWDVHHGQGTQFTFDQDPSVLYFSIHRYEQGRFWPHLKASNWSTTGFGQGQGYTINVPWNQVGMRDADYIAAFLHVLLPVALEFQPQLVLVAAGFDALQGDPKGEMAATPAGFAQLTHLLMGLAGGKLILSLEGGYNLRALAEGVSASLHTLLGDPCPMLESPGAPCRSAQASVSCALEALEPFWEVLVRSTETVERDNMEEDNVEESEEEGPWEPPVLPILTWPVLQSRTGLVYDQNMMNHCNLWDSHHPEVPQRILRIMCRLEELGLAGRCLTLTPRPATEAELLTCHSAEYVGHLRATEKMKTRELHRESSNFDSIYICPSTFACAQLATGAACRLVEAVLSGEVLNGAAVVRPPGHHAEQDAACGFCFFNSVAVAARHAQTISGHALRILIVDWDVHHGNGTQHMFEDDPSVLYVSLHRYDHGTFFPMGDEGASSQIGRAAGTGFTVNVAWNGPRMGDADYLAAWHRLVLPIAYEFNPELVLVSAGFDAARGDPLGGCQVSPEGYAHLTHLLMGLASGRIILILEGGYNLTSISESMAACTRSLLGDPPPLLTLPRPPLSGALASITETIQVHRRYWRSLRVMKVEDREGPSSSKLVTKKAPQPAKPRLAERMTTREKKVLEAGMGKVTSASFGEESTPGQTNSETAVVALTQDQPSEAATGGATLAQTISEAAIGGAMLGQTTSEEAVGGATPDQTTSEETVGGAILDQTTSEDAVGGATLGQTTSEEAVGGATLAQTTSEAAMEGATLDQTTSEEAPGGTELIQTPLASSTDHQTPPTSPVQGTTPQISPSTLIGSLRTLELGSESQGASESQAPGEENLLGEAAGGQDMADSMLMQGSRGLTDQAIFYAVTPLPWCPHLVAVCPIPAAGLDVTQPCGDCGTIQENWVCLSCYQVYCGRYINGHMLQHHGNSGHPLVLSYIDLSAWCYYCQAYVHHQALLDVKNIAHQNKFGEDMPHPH

Schistosoma mansoni [15] = test: Schistosomicidal-activity against Schistosoma mansoni schistosomula incubated for 48 hrs by Alamar Blue assay; type: functional, organism-based
Histone deacetylase 1 = Histone deacetylase 1 (Homo sapiens, UniProt Q13547); test: Inhibition of human HDAC1 (1 to 482 reidue) expressed in sf9 cells using ZMAL(Cbz-(Ac)Lys-AMC as substrate preincubated for 90 mins followed by trypsin addition and measured after 20 mins by fluorimetric method
Histone deacetylase 1, sequence (Q13547 whole entry): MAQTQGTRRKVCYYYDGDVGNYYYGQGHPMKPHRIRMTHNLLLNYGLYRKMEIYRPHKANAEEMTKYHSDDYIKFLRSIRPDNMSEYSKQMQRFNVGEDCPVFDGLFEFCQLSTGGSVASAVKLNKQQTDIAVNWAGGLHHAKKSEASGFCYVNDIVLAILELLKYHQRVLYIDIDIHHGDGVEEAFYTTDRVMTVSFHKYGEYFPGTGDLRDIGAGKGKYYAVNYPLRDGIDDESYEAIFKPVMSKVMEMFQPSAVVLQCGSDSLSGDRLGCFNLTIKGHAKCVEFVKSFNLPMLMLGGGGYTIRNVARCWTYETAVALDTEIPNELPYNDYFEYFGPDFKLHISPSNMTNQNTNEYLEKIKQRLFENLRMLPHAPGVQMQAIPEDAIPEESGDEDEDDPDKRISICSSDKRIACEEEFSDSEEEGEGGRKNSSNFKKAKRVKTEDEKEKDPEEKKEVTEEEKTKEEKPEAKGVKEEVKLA

Schistosoma mansoni [16] = test: Antischistosomal activity against Schistosoma mansoni LE assessed as worm mortality at 100 ug/ml measured after 144 hrs by inverted microscopic method relative to control; type: functional; conditions: dose 100 µg/ml
Schistosoma mansoni [17] = test: Antischistosomal activity against Schistosoma mansoni LE assessed as worm mortality at 100 ug/ml measured after 72 hrs by inverted microscopic method relative to control; type: functional
Schistosoma japonicum = test: Antischistosomal activity against Schistosoma japonicum assessed as worm mortality at 10 ug/ml incubated for 72 hrs by microscopic method relative to control; type: functional; conditions: dose 10 µg/ml
Schistosoma mansoni [18] = test: Schistosomicidal-activity against Schistosoma mansoni LE assessed as seperation of worm couples at 25 uM measured within 120 hrs relative to control; type: functional
Schistosoma mansoni [19] = test: Antischistosomal activity against Schistosoma mansoni BH infected in Balb/c mouse assessed as reduction in worm burden at 400 mg/kg, po measurement after 2 weeks; type: functional; set-up: scale not given: the % may be the effect or the level left

Compound `CN(C)c1ccc(/C=C2\NC(=O)N(Cc3c(F)cccc3Cl)C2=S)cc1` has an Activity (Schistosoma mansoni [1]) of 100%.

Compound `Fc1ccc(Cl)cc1-c1nc(Nc2ccncc2)c2nccnc2n1` has an Activity (Schistosoma mansoni [2]) of 51.6%.

`C1CCCCCC2(CCCCC1)OOCCCOO2` gave an EC50 (Schistosoma mansoni [3]) of 16 nM and an Activity (Schistosoma mansoni [4]) of 63%.

`CN1CCN(CCCOc2ncc(Nc3ncc(-c4ccc(C(F)(F)F)c(F)c4)nc3C(N)=O)cn2)CC1` showed an IC50 (Schistosoma mansoni [5]) of 3000 nM, an Activity (Schistosoma haematobium) of 100% and an Activity (Schistosoma mansoni [6]) of 100%. For the same compound, the IC50 (Schistosoma mansoni [7]) was 800 nM, the Activity (Schistosoma mansoni [8]) was 70% and the Activity (Schistosoma mansoni [9]) was 100%.

`NC(=O)c1nc(-c2ccc(C(F)(F)F)c(F)c2)cnc1Nc1cnc(OCCCN2CCCCC2)nc1` showed an Activity (Schistosoma mansoni [10]) of 37.6%.

Work on `O=C(/C=C/c1ccccc1Oc1c(Cl)cccc1Cl)NO` yielded an IC50 (Histone deacetylase 8 [11]) of 440 nM, an IC50 (Histone deacetylase 8 [12]) of 470 nM and an Activity (Schistosoma mansoni [13]) of 89%. It also gave an IC50 [14] of 8200 nM, an EC50 (Schistosoma mansoni [15]) of 6500 nM and an IC50 (Histone deacetylase 1) of 20200 nM.

With `COc1ccc(-c2cs/c(=N/N=C/CN3C(=O)c4ccccc4C3=O)[nH]2)cc1` the Activity (Schistosoma mansoni [16]) was 100% and the mortality at 100 µg/mL (Schistosoma mansoni [17]) was 60%.

In the case of `OC(CN1CCCC1)Cn1c2ccc(Cl)cc2c2cc(Cl)ccc21` (configuration not stated), the Activity (Schistosoma japonicum) is reported as 100%.

`COc1cc([C@@H]2OC(=O)[C@@H]3[C@H]2C(=O)O[C@H]3c2cc(OC)c(O)c(OC)c2)cc(OC)c1O` was tested, and the Activity (Schistosoma mansoni [18]) was 100%.

Work on `COc1cc(O)ccc1C(=O)/C=C/c1ccccc1` yielded an Activity (Schistosoma mansoni [19]) of 31.8%.
